Results published in US11274132B2, “Combined preparations of PKM2 modulators and HMGB1” (Ruprecht-Karls-Universität Heidelberg, priority 2015, dated 2022).
Entries after “also recorded” stand apart in the source; their conditions may differ. Where two headings read alike, the source gives them in different places. Residues, ends and D or L forms follow the SMILES beside them.

How the values were obtained:
[1] = CellTiter-Glo Luminescent Cell Viability Assay; type: cell-based, human; conditions: human, CLL cells from a patient, DASA 100 μM, read-out: Viable cells [DASA]
[2] = test system: colorectal cancer cells; assay: Crystal violet cytotoxicity assay, cell lines not given; type: cell-based
Protocol: (§1) Human colon carcinoma cell lines SW480, HCT116, HT29 and Caco2, the human glioblastoma cell line U251MG and the Natural killer cell line NK-92 Cl were purchased from ATCC. Cell lines were regularly tested for contamination by multiplex PCR performed in the Genomics and Proteomics Core Facility 2 (DKFZ, Heidelberg, Germany). For experiments, cells were cultured for no more than 10 passages. Rho zero cells were generated as described earlier 1. (Gdynia, G. et al. Danger signaling protein HMGB1 induces a distinct form of cell death accompanied by formation of giant mitochondria. Cancer research 70, 8558-8568). Cells used in the experiments were cultured in RPMI (#1640, colon carcinomas, NK cells) or DMEM high glucose (#41965-039, glioblastoma cells) medium. Rho zero cells were generated as described earlier (Gdynia, G. et al. ibd.). Briefly, cells were cultured in RPMI medium (10% FCS, 1% P/S) supplemented with 250 ng/ml ethidiumbromide, 50 μg/ml L-pyruvate and 5 mg/ml uridine over a period of 12 weeks. For cytotoxicity measurements, cells were cultured in 96-well plates, treated with recombinant human HMGB1 protein (Sigma-Aldrich®), glycyrrhizinic acid ((3β, 18α)-30-hydroxy-11, 30-dioxoolean-12-en-3-yl 2-O-β-D-glucopyranuronosyl-β-D-glucopyranosiduronic acid)) (Sigma-Aldrich®), 10 μM (non-toxic) or 100 μM (cytotoxic) P-M2tide (aa sequence: GGAVDDDpYAQFANGG; #BML-P239-0001; Enzo Life Sciences) or 100 μM ML-265 (Cayman Chemical), then cell viability was assessed by crystal violet staining (Gillies, R. J., Didier, N. & Denton, M. Determination of cell number in monolayer cultures. Analytical biochemistry 159, 109-113 (1986)). Malic enzyme 1 knock-down was performed with 40 nM siRNA using lipofectamine in 6-well plates followed by treatment with 80 nM HMGB1 for 72 h. Sequences of siRNA were: ME1, 5′-[…]-3′ and scrambled control 5′-CCUGCAGUACUUCAAGCGGtt-3′. PKM2 siRNA was from Santa Cruz. A nonspecific siRNA served as control (Dharmacon, Schwerte, Germany). For overexpression of PKM2 or ME1, cells were transfected with pCMV-PKM2 (Sino Biological Inc., Beijing, China) or pCMV-ME1 (OriGene, Rockville, Md., USA) using Lipofectamine 2000. For cytotoxicity measurements confluent cells were cultured in 96-well plates if not otherwise indicated. Cytotoxic activity of supernatants from stimulated NK cells was assessed in 96-well plates for 3 days with RPMI medium as reference. Recombinant human HMGB1 (10 ng, Sigma) suited as positive control. For mass isotopomer assays, cells were cultured in glucose- or glutamine-free medium supplemented with either uniformly labeled (U)-13C-D-glucose or U-13C-glutamine (Sigma-Aldrich®).

[3] = biological target: PKM2 (Homo sapiens, UniProt P14618); assay: Immunoprecipitation with 125I-labeled HMGB1 (PKM2 pull-down); type: binding; design: endogenous in cells; conditions: P-M2tide at non-cytotoxic concentrations
PKM2, sequence (P14618 whole entry): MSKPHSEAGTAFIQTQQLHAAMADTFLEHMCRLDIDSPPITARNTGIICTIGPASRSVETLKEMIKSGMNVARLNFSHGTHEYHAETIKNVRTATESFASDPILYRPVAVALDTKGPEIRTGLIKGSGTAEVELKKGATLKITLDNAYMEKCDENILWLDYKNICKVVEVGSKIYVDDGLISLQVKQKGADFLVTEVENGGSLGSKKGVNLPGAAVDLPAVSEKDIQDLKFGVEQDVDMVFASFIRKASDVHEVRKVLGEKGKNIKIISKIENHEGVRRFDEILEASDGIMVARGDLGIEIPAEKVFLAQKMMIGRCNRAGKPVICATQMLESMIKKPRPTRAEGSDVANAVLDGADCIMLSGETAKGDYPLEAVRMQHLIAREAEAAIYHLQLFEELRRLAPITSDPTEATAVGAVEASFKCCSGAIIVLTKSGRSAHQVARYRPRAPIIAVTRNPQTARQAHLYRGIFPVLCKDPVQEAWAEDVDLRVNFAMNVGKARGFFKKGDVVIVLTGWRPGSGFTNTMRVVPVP
Protocol: FIG. 6: Co-administration of HMGB1 and an activator (A left and right) or an inhibitor (B) of PMK2 has a synergistic cytotoxic effect, as determined in the crystal violet cytotoxicity assay (assays were performed in duplicate, * indicates p<0.05). (C) Immunoprecipitation with I125-labeled HMGB1 (PKM2 pull-down). HMGB1, like phosphotyrosine-peptides, binds close to the allosteric center of PKM2, leading to a competition in binding.

[4] = test system: CLL cells; assay: CellTiter-Glo Luminescent Cell Viability Assay; type: cell-based, human
[5] = test system: glucose flux (glycolysis); assay: Glycolysis: conversion of 5-3H-Glucose to 3H2O; type: cell-based, human; conditions: SW480 cells; co-treatment, glycyrrhizin 200 μM
Protocol: Lactate derived from the metabolism of ^13C6-D-glucose or ^13C5-glutamine was determined by comparing the CH3 group intensities of labeled and non-labeled lactate in NMR. Mitochondrial respiration was measured using an Oroboros 1 oxygraph system. Glycolysis was measured by monitoring the conversion of 5-^3H-Glucose to ^3H2O. Incorporation of ^14C into RNA ribose from U-^14C-labelled glucose was taken as glucose utilization in the pentose phosphate shunt. Enzymatic activities were determined in subcellular fractions as previously described^24.

[6] = test system: HT29 cells; assay: Crystal violet cytotoxicity assay; type: cell-based; conditions: 72 h
Protocol: as §1

[7] = test system: HCT116 colorectal cancer cells; assay: Crystal violet cytotoxicity assay; type: cell-based
Protocol: as §1

[8] = test system: SW480 colorectal cancer cells; assay: Crystal violet cytotoxicity assay; type: cell-based
Protocol: as §1

[9] = biological target: T1, tetrameric PK M2 (Homo sapiens, UniProt P14618); assay: Pyruvate kinase enzymatic assay in cytosolic fractions / homogenates (low PEP); type: cell-based; conditions: glycyrrhizin 200 μM
T1 construct: Activities of glycolytic enzymes measured in cytosolic fractions after treatment with HMGB1; endogenous in cells; host or cells: SW480, HCT116, HT29 cytosolic fractions; homogenates of human colon cancer tissue slices
T1 sequence (P14618 2-531): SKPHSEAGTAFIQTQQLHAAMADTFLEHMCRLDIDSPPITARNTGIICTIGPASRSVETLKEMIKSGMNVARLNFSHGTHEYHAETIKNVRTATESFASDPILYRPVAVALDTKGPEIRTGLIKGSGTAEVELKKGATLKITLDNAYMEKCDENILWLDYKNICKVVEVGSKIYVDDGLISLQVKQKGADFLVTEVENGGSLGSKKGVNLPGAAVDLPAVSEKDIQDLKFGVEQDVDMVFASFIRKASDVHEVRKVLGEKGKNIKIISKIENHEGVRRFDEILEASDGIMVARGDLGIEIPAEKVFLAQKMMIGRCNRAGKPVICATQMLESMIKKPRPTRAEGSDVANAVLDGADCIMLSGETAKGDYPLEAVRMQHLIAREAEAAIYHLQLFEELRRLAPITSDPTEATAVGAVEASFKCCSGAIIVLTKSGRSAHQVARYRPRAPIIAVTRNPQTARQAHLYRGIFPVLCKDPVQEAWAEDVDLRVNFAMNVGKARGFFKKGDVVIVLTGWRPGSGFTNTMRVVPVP
Protocol: Enzymatic activities of respiratory chain complexes, glycolytic proteins and malic enzyme were determined in subcellular fractions as previously described (Kaminski, M. M. et al. T cell activation is driven by an ADP-dependent glucokinase linking enhanced glycolysis with mitochondrial reactive oxygen species generation. Cell reports 2, 1300-1315 (2012).Bruncko, M. et al. Naphthamidine urokinase plasminogen activator inhibitors with improved pharmacokinetic properties. Bioorganic & medicinal chemistry letters 15, 93-98, (2005)) using a computer-tuneable spectrophotometer (Spectramax Plus Microplate Reader, Molecular Devices; Sunny Vale, Calif., USA) operating in the dual wavelength mode; samples were analyzed in temperature-controlled 96-well plates in a final volume of 300 μl. Activity of ME1 was recorded in presence of increasing amounts of malic acid (0.02, 0.05, 0.1, 0.2, 0.5, 1, 2.5 mM). Vmax and Km were calculated using a Hanes-Woolf plot. In the presence of high substrate levels the Km for malic acid was similar in all three tested cell lines (SW480: 0.32 mM, HCT116: 0.30 mM, HT29: 0.31 mM). Vmax (mU/mg protein) values were 3.38 (SW480, 0.5-5.0 mM malic acid), 5.77 (HCT116, 0.5-5.0 mM malic acid) and 3.68 (HT29, 0.5-5.0 mM malic acid) and 1.68 (SW480, 0.02-0.2 mM malic acid), 3.24 (HCT116, 0.02-0.2 mM malic acid) and 1.89 (HT29, 0.02-0.2 mM malic acid). Two isoforms of ME1, mitochondrial (NAD(P)+dependent) ME3 and mitochondrial (NAD+dependent) ME2, had very low or no detectable activities (data not shown).

[10] = glycyrrhizin as inhibitor of HMGB1
[11] = supernatants of anti-Nkp30 stimulated blood NK cells, glycyrrhizin 200 μM, 72 h
[12] = 72 h, NK cell derived HMGB1 approx. 16 nM, recombinant human HMGB1 80 nM

O=S(=O)(c1ccc2c(c1)OCCO2)N1CCN(S(=O)(=O)c2c(F)cccc2F)CC1 [DASA, 1-(2,6-Difluorophenylsulfonyl)-4-(2,3-dihydrobenzo[b][1,4]dioxin-6-ylsulfonyl)piperazine]
viability at 100 μM ([1]; patient P0010, sample 13PB0501): 100% | viability at 100 μM ([1]; patient P0010, sample 14PB0132): 67% | viability at 100 μM ([1]; patient P0074, sample 14BP0079): 37% | viability at 100 μM ([1]; patient P0369, sample 13PB0555): 100% | viability at 100 μM ([1]; patient P0460, sample 14PB0471): 72% | viability at 100 μM ([1]; patient P0641, sample 13PB0500): 100% | viability at 100 μM ([1]; patient P0641, sample 13PB0649): 88% | viability at 100 μM ([1]; patient P0645, sample 13PB0473): 90% | viability at 100 μM ([1]; patient P0701, sample 14PB0451): 100%

[N-]=[N+]=CC(=O)CC[C@H](N)C(=O)O [L-DON, 6-diazo-5-oxo-L-norleucine]
cytotoxicity of glutaminolysis inhibition together with HMGB1 ([2]; L-DON 1 μM with HMGB1, glucose deprived and glucose supplemented medium): synergistic cytotoxicity

Cn1c2cc([S+](C)[O-])sc2c2cnn(Cc3cccc(N)c3)c(=O)c21 (stereo not shown) [ML-265, 6-(3-aminobenzyl)-4-methyl-2-(methylsulfinyl)-4,6-dihydro-5H-thieno[2′,3′:4,5]pyrrolo[2,3-d]pyridazin-5-one]
competition with binding of HMGB1 to PKM2 [3]: did not compete | competition with binding of HMGB1 to PKM2 ([3]; listed as ML265): does not compete | induction of cell death ([2]; 100 μM, 24 h): did not induce cytotoxicity; also recorded: not able to induce cell death

CC(C)[C@H](NC(=O)[C@H](C)NC(=O)CNC(=O)CN)C(=O)N[C@@H](CC(=O)O)C(=O)N[C@@H](CC(=O)O)C(=O)N[C@@H](CC(=O)O)C(=O)N[C@@H](Cc1ccc(OP(=O)(O)O)cc1)C(=O)N[C@@H](C)C(=O)N[C@@H](CCC(N)=O)C(=O)N[C@@H](Cc1ccccc1)C(=O)N[C@@H](C)C(=O)N[C@@H](CC(N)=O)C(=O)NCC(=O)NCC(=O)O [P-M2tide, GGAVDDDpYAQFANGG] (HELM PEPTIDE1{G.G.A.V.D.D.D.[O=C([C@H](Cc1ccc(OP(=O)(O)O)cc1)N[*:1])[*:2]].A.Q.F.A.N.G.G}$$$$V2.0)
toxicity ([2]; 10 μM P-M2tide): non-toxic | toxicity ([2]; 100 μM P-M2tide): cytotoxic | Viable cells [PM2-tide] ([4]; patient P0010, sample 13PB0501, PM2-tide 100 μM, 250 µM): 100% | Viable cells [PM2-tide] ([4]; patient P0010, sample 14PB0132, PM2-tide 100 μM, 250 µM): 75% | Viable cells [PM2-tide] ([4]; patient P0074, sample 14BP0079, * responding to 100 μM PM2-tide): 46%* | Viable cells [PM2-tide] ([4]; patient P0369, sample 13PB0555, PM2-tide 100 μM, 250 µM): 100% | Viable cells [PM2-tide] ([4]; patient P0460, sample 14PB0471, * responding to 100 μM PM2-tide): 56%* | Viable cells [PM2-tide] ([4]; patient P0641, sample 13PB0500, PM2-tide 100 μM, 250 µM): 100% | Viable cells [PM2-tide] ([4]; patient P0641, sample 13PB0649, PM2-tide 100 μM, 250 µM): 93% | Viable cells [PM2-tide] ([4]; patient P0645, sample 13PB0473, PM2-tide 100 μM, 250 µM): 91% | Viable cells [PM2-tide] ([4]; patient P0701, sample 14PB0451, PM2-tide 100 μM, 250 µM): 100%

CC1(C)[C@@H](O[C@H]2O[C@H](C(=O)O)[C@@H](O)[C@H](O)[C@H]2O[C@@H]2O[C@H](C(=O)O)[C@@H](O)[C@H](O)[C@H]2O)CC[C@]2(C)[C@H]3C(=O)C=C4[C@@H]5C[C@@](C)(C(=O)O)CC[C@]5(C)CC[C@@]4(C)[C@]3(C)CC[C@@H]12 [glycyrrhizin, (3β, 18α)-30-hydroxy-11, 30-dioxoolean-12-en-3-yl 2-O-β-D-glucopyranuronosyl-β-D-glucopyranosiduronic acid, reference compound]
reversal of HMGB1-induced metabolic shift [5]: partly reversed | effect on NK cell-dependent cytotoxic effect ([6]; supernatants of anti-Nkp30 stimulated blood NK cells, glycyrrhizin 200 μM): diminished | blocking of HMGB1 cytotoxic effects [7, 10]: significantly blocked | effect on NK cell-dependent cytotoxic effect [7, 11]: diminished | blocking of HMGB1 cytotoxic effects [8, 10]: significantly blocked | effect on NK cell-dependent cytotoxic effect [8, 11]: not changed | restoration of tetrameric PK M2 activity inhibited by NK cell supernatant [9]: completely restored

CC[C@H]1/C=C/C=C/C[C@@H](C)[C@H](O)[C@@](C)(O)C(=O)[C@@H](C)[C@H](O)[C@@H](C)C(=O)[C@@H](C)[C@H](O)[C@@H](C)/C=C/C(=O)O[C@@H]2[C@H](C)[C@H](CC1)O[C@]1(CC[C@H](C)[C@H](C[C@@H](C)O)O1)[C@H]2C [oligomycin, reference compound]
cell death ([7]; oligomycin 10 ng/ml, 72 h): rapid cell death | cell death ([8]; oligomycin 10 ng/ml, 72 h): rapid cell death

HPLC-purified HMGB1: HPLC-purified HMGB1 from the supernatant of Nkp30 stimulated blood donor NK cells
cytotoxicity ([2]; 80 nM, 24 h, diluted in IgG1 control supernatant): substantial cytotoxicity

NK cell derived HMGB1: HMGB1 isolated from the cytosolic granules of the NK cell line NK-92 CI by HPLC (eluate #38)
side-by-side cytotoxicity versus recombinant HMGB1 ([6]; 80 nM or 160 nM): higher cytotoxicity than recombinant HMGB1 | cell death (cytotoxicity) [7, 12]: efficiently killed | cell death (cytotoxicity) [8, 12]: efficiently killed
